Assay results taken from ChEMBL document CHEMBL6121047, “Design, Synthesis, and Evaluation of Selective PDE4 Inhibitors for the Therapy of Pulmonary Injury” (J Med Chem, 2025).
The source made the active and inactive calls. The rule behind the calls is not given here.

Key:
[1] = AUC (0 to infinity) in Sprague-Dawley rat at 5 mg/kg, iv measured upto 24 hrs by LC-MS/MS analysis; assay type: ADME, organism-based; settings: in vivo
Mus musculus [2] = assay: Antitussive activity in male BALB/c mouse model assessed as delay in cough incubation period at 32 mg/kg administered every day via gavage for 7 days at 1 hrs post last dose and measured within 3 min; assay type: functional, organism-based; settings: time 169.05 hrs
[3] = AUC (0 to t) in Sprague-Dawley rat at 10 mg/kg, po measured upto 24 hrs by LC-MS/MS analysis; assay type: ADME, organism-based; settings: in vivo
NCI-H292 = assay: Anti-inflammatory activity against EGF-induced human NCI-H292 cells assessed as decrease in MUC5AC mRNA expression by RT-qPCR analysis; assay type: functional, cell-based; settings: dose 10-50 µM
RAW264.7 [4] = assay: Anti-inflammatory activity in LPS-induced mouse RAW264.7 cells assessed as inhibition of IL-1 beta secretion level at 10 uM preincubated with compound for 1 hr followed by LPS addition and measured after 24 hrs by ELISA; assay type: functional, cell-based; settings: time 25.0 hrs
[5] = Initial plasma concentration in Sprague-Dawley rat at 5 mg/kg, iv measured upto 24 hrs by LC-MS/MS analysis; assay type: ADME, organism-based
[6] = Acute toxicity in Sprague-Dawley rat assessed as pathological changes in spleen at 1 g/Kg, po administered via gavage by H and E staining based analysis; assay type: organism-based; settings: in vivo, 1000 mg/kg
BEAS-2B [7] = assay: Anti-inflammatory activity in LPS-induced human BEAS-2B cells assessed as inhibition of TNF-alpha secretion level at 10 uM preincubated with compound for 1 hr followed by LPS addition and measured after 24 hrs by ELISA; assay type: functional, cell-based; settings: time 25.0 hrs
RAW264.7 [8] = assay: Cytotoxicity against mouse RAW264.7 cells assessed as reduction in cell viability incubated for 24 hrs by CCK-8 assay; assay type: toxicity, cell-based; settings: raw264.7, 24 h
RAW264.7 [9] = assay: cells; settings: Mus musculus
Mus musculus [10] = assay: Antifibrotic activity against LPS-induced acute lung injury male BALB/c mouse model assessed as decrease in collagen deposition at 8 to 32 mg/kg administered once a day via gavage for 7 days followed by LPS stimulation and measured after 24 hrs by masson staining based microscopic analysis; assay type: functional, organism-based; settings: dose 8-32 mg/kg, time 192.0 hrs
[11] = Metabolic stability in dog liver microsomes assessed as half life incubated for 4 hrs in presence of NADPH by LC-MS analysis; assay type: ADME, Canis lupus familiaris, Microsome
[12] = Half life in Sprague-Dawley rat at 5 mg/kg, iv measured upto 24 hrs by LC-MS/MS analysis; assay type: ADME, organism-based; settings: in vivo
[13] = Apparent volume of distribution in Sprague-Dawley rat at 5 mg/kg, iv measured upto 24 hrs by LC-MS/MS analysis; assay type: ADME, organism-based; settings: in vivo, read-out: Vz
RAW264.7 [14] = assay: Anti-inflammatory activity in LPS-induced mouse RAW264.7 cells assessed as inhibition of IL-6 secretion level at 10 uM preincubated with compound for 1 hr followed by LPS addition and measured after 24 hrs by ELISA; assay type: functional, cell-based; settings: time 25.0 hrs
[15] = molecular target: Voltage-gated inwardly rectifying potassium channel KCNH2 (Homo sapiens, UniProt Q12809); assay: Inhibition of hERG expressed in HEK293T cells; assay type: toxicity, cell-based
Chain of Voltage-gated inwardly rectifying potassium channel KCNH2 (Q12809 whole entry): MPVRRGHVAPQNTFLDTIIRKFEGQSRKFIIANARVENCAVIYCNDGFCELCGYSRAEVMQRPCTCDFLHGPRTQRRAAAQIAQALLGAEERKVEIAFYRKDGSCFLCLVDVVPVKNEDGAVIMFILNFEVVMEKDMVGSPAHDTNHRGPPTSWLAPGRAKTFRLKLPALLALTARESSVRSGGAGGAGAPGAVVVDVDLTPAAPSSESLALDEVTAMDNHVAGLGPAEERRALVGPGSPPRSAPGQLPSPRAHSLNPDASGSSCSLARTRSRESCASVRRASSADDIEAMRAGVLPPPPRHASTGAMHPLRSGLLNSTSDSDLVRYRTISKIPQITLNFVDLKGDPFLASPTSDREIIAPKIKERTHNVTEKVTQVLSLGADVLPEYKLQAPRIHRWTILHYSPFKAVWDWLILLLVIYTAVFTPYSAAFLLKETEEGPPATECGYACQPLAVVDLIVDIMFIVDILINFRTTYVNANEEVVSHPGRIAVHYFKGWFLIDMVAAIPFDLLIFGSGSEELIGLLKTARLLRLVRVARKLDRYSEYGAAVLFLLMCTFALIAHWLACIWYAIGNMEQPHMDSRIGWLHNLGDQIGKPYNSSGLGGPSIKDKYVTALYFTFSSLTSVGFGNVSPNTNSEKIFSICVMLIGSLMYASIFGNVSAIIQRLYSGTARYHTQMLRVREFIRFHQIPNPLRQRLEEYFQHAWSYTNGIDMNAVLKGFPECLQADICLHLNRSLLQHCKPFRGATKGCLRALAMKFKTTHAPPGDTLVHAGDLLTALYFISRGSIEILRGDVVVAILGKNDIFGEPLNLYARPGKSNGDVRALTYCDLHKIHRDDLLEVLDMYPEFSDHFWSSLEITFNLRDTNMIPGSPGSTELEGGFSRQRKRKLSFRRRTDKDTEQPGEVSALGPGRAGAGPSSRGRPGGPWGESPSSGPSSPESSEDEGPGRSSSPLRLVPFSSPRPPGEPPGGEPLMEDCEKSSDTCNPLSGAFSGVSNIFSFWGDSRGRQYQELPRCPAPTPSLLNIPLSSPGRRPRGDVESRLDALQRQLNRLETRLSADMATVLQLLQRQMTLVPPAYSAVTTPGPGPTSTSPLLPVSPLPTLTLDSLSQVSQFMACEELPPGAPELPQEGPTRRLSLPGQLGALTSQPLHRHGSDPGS

Mus musculus [16] = assay: (§1) Anti-inflammatory activity against cigarette-smoke/LPS-induced COPD male C57BL/6 mouse model assessed as reduction in bronchiole thickness at 5 mg/kg pretreated with cigarette smoke exposure for 21 weeks with subsequent LPS induction twice on the first and 15th day followed by compound administration every day via gavage for 4 weeks by H and E staining based microscopic analysis; assay type: functional, organism-based
Mus musculus [17] = assay: Anti-inflammatory activity against LPS-induced acute lung injury male BALB/c mouse model assessed as reduction in total cell counts in BALF at 8 to 32 mg/kg administered once a day via gavage for 7 days followed by LPS stimulation and measured after 24 hrs; assay type: functional, organism-based; settings: dose 8-32 mg/kg, time 192.0 hrs
RAW264.7 [18] = assay: Anti-inflammatory activity against cigarette-smoke/LPS-induced mouse RAW264.7 cells assessed as inhibition of phosphorylated p38 MAPK protein expression by Western blotting analysis; assay type: functional, cell-based
BEAS-2B [19] = assay: Anti-inflammatory activity in LPS-induced human BEAS-2B cells assessed as inhibition of IL-6 secretion level at 10 uM preincubated with compound for 1 hr followed by LPS addition and measured after 24 hrs by ELISA; assay type: functional, cell-based; settings: time 25.0 hrs
[20] = Oral bioavailability in Sprague-Dawley rat at 10 mg/kg measured upto 24 hrs by LC-MS/MS analysis; assay type: ADME, organism-based; settings: in vivo
[21] = Acute toxicity in Sprague-Dawley rat assessed as increase in body weight at 1 g/Kg, po administered via gavage and measured on day 14; assay type: organism-based; settings: in vivo, 1000 mg/kg
[22] = Cmax in Sprague-Dawley rat at 10 mg/kg, po measured upto 24 hrs by LC-MS/MS analysis; assay type: ADME, organism-based; settings: in vivo
[23] = Acute toxicity in Sprague-Dawley rat assessed as effect on apparent heart coefficient change at 1 g/Kg, po administered via gavage; assay type: organism-based; settings: in vivo, 1000 mg/kg
[24] = molecular target: 3',5'-cyclic-AMP phosphodiesterase 4A (Homo sapiens, UniProt P27815); assay: Inhibition of PDE4A (unknown origin) using FAM-cAMP as substrate preincubated with compound for compound for 15 mins followed by substrate addition and measured after 30 mins by Envision multilabel reader analysis
Chain of 3',5'-cyclic-AMP phosphodiesterase 4A (P27815 whole entry): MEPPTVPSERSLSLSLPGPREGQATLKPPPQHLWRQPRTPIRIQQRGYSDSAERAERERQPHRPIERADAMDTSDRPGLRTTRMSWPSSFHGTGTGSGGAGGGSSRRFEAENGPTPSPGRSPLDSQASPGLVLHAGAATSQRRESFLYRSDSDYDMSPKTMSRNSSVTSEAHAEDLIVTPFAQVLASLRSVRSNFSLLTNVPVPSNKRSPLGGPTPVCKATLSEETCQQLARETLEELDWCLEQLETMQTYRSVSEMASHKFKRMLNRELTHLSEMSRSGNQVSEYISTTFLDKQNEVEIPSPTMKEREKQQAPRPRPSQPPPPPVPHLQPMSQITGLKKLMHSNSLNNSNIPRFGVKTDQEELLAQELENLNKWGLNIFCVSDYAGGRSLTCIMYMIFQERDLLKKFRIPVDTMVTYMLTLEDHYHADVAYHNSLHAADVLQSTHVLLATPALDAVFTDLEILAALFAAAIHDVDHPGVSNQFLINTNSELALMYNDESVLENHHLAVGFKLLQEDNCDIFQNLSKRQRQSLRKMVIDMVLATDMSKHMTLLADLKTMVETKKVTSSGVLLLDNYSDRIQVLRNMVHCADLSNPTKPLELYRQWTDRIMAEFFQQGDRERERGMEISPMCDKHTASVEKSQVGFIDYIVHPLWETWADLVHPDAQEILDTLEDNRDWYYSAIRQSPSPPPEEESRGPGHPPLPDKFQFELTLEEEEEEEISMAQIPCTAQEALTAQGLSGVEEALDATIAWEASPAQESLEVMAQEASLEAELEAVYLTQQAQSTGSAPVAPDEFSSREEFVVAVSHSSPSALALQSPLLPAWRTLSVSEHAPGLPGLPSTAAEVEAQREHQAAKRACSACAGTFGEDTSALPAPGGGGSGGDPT

[25] = molecular target: 3',5'-cyclic-AMP phosphodiesterase 4B (Homo sapiens, UniProt Q07343); assay: Inhibition of PDE4B (unknown origin) using FAM-cAMP as substrate preincubated with compound for compound for 15 mins followed by substrate addition and measured after 30 mins by Envision multilabel reader analysis
Chain of 3',5'-cyclic-AMP phosphodiesterase 4B (Q07343 whole entry): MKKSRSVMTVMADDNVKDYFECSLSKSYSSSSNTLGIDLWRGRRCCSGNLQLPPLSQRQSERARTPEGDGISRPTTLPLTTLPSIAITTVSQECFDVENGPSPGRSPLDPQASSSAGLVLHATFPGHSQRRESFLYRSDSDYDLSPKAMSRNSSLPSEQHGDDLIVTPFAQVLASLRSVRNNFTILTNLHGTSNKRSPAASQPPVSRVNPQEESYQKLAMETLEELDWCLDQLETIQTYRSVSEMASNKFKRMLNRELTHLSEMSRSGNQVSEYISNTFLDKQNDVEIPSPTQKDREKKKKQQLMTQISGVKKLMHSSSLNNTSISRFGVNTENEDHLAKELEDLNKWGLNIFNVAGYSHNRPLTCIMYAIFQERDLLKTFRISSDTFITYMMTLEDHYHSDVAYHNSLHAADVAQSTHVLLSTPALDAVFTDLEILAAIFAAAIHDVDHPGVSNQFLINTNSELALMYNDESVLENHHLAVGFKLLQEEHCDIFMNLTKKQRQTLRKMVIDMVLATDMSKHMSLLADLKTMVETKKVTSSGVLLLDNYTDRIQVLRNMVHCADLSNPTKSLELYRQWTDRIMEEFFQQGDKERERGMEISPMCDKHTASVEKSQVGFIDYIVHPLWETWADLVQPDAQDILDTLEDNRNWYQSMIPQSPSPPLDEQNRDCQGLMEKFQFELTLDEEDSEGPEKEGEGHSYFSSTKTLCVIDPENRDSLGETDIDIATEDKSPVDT

Mus musculus [26] = assay: Anti-inflammatory activity against LPS-induced acute lung injury male BALB/c mouse model assessed as reduction in IL-6 level in BALF at 8 to 32 mg/kg administered once a day via gavage for 7 days followed by LPS stimulation and measured after 24 hrs; assay type: functional, organism-based; settings: dose 8-32 mg/kg, time 192.0 hrs
[27] = Tmax in Sprague-Dawley rat at 10 mg/kg, po measured upto 24 hrs by LC-MS/MS analysis; assay type: ADME, organism-based; settings: in vivo
RAW264.7 [28] = assay: Anti-inflammatory activity in LPS-induced mouse RAW264.7 cells assessed as inhibition of TNF-alpha secretion level at 10 uM preincubated with compound for 1 hr followed by LPS addition and measured after 24 hrs by ELISA; assay type: functional, cell-based; settings: time 25.0 hrs
[29] = Toxicity in female Beagle dog assessed as drug tolerance at 1 to 3 mg/kg, po administered once via gavage and measured within 24 hrs; assay type: organism-based, Canis lupus familiaris; settings: in vivo, dose 1-3 mg/kg
[30] = Acute toxicity in Sprague-Dawley rat assessed as pathological changes in liver at 1 g/Kg, po administered via gavage by H and E staining based analysis; assay type: organism-based; settings: in vivo, 1000 mg/kg
RAW264.7 [31] = assay: Anti-inflammatory activity in LPS-induced mouse RAW264.7 cells assessed as decrease in p-p38 MAPK protein level by Western blotting analysis; assay type: functional, cell-based
[32] = AUC (0 to t) in Sprague-Dawley rat at 5 mg/kg, iv measured upto 24 hrs by LC-MS/MS analysis; assay type: ADME, organism-based; settings: in vivo
[33] = Metabolic stability in mouse liver microsomes assessed as half life incubated for 4 hrs in presence of NADPH by LC-MS analysis; assay type: ADME, Microsome
Mus musculus [34] = assay: as §1, with “decrease” for “reduction”, “collagen formation” for “bronchiole thickness”, “masson” for “H and E”; assay type: functional, organism-based

In the case of `O=C(Nc1nccs1)c1cccc2[nH]c(-c3ccc(OC(F)F)c(OCC4CC4)c3)nc12`, the AUC(0-inf) [1] is reported as 23200 ng·h/mL, the Activity (Mus musculus [2]) is reported as “Active” and the AUC(0-t) at 24 h [3] is reported as 2130 ng·h/mL. The Activity (NCI-H292) was “Dose-dependent-effect”, the Activity (RAW264.7 [4]) was “Active” and the C0 at 24 h [5] was 38100 ng/mL. The Activity [6] was “Non-toxic”, the Activity (BEAS-2B [7]) was “Active” and the Activity (RAW264.7 [8]) was “Non-toxic”. The IC50 (RAW264.7 [9]) was 29500 nM, the Activity (Mus musculus [10]) was “Active” and the half-life [11] was 0.721 h. The half-life [12] was 1.97 h, the Vd [13] was 0.606 L/kg and the Activity (RAW264.7 [14]) was “Active”. The IC50 [15] was over 30000 nM, the Activity (Mus musculus [16]) was “Active” and the Activity (Mus musculus [17]) was “Active”. For the same compound, the Activity (RAW264.7 [18]) was “Active”, the Activity (BEAS-2B [19]) was “Active” and the bioavailability [20] was 4.59%. The Activity [21] was “Non-toxic”, the Cmax [22] was 219 ng/mL and the Activity [23] was “Non-toxic”. For the same compound, the IC50 [24] was 89.7 nM, the IC50 [25] was 48.8 nM and the Activity (Mus musculus [26]) was “Active”. For the same compound, the Tmax [27] was 3 h, the Activity (RAW264.7 [28]) was “Active” and the Activity [29] was “Non-toxic”. The Activity [30] was “Non-toxic”, the Activity (RAW264.7 [31]) was “Active” and the AUC(0-t) at 24 h [32] was 23200 ng·h/mL. The half-life [33] was 0.67 h and the Activity (Mus musculus [34]) was “Active”.
